Earlier results in patent US20260007780A1, “LIQUID VEHICLE FORMULATION FOR ENTEROGRAPHY EXAMINATION” (priority 2008, published 2026).

## CC(=O)Nc1c(I)c(NC(C)=O)c(I)c(C(=O)O)c1I [Diatrizoic acid, diatrizoic acid]
  solubility in water: practically insoluble in water
